Assay [1] relates to P388 murine leukaemia cell line. Briefly: Cytotoxicity/growth inhibition assay (MTT), P388. The class given is cell-based. As for the experimental part:
(§1) (2) Competition for the colchicine binding site on tubulin. The figure quoted represents the % of ^3H-colchicine bound following co-incubation of test compound and ^3H-cochicine with isolated tubulin. Where ester pro-drugs were used the experiments were carried out in the presence and absence of porcine liver esterase. • (3) Cytotoxicity/growth inhibition assay. This was carried out by the MTT assay. • (4) Permeability (shape-change) assay in endothelial cells. […] This involved the diffusion of a fluorescently labelled dextran through a barrier of endothelial cells (HUVEC) grown to confluence on a porous membrane. The effect of agents to alter the shape of these cells results in an increase in the permeability of the cells to the dye. The figure represents the increase in permeability over control cultures when drug is added (30 minutes, 1 mM.). • (5) Experiments to study the anti-vascular effects of these agents were carried out as described previously by our group. […] The anti-vascular effects of the agents were monitored by either positron emission tomography (PET) or by histologogical examination following treatment of mice bearing T50:80 murine breast tumours, or H460 human lung tumours. • (6) Anti-tumour efficacy of agents was determined in xenografts of H460 human lung cancer. Animals (n=5) were trated either with 5 daily injections and tumour size measured with time following treatment. • (7) The pharmacokinetic profile of agents was determined in mice following injection with drug. Blood was taken at various times following treatment and analysed by HPLC with UV detection. […] (AND(P)H:quinone oxidoreductace, EC 1.6.99.2). DT-diaphorase is an enzyme over-expressed in a number of human tumours. […] This two-electron reducing enzyme can be used to selectively activate prodrugs within cancers which over-express the enzyme.

In assay [2] the test system is K562 human myelogeneous leukaemia cell line. Briefly: Cytotoxicity/growth inhibition assay (MTT), K562. The class given is cell-based. To be noted: MTT, read-out: K562 IC50.
Excerpt: In addition to the cell lines described in this paper, other established human cell lines (K562, HUVEC, H460, BE, H529, and HT29) were used in the cytotoxicity/growth inhibition assay. • (1) Inhibition of tubulin assembly. The figure quoted is the concentration required to reduce assembly of tubulin by 50%. Tubulin assembly is monitored by light scatter/absorption at 350 nm.
as §1

The test system of assay [3] is tubulin. Briefly: MA IC50 (Tables 12-26, abbreviation not defined). In kind it is biochemical.
Assay [4] has as its system tubulin. Briefly: CD IC50 (Tables 12-26, abbreviation not defined). In kind it is binding.
The subject of assay [5] is K562. Briefly: K562 cell cycle analysis. In kind it is cell-based, human. Particulars: K562; for % of cells in G0–G1 / % of cells in G2-M / % of cells in S phase: of cells with DNA content = 2 n or >2 n.
Assay [6] relates to A2780. Briefly: Cytotoxicity/growth inhibition assay (MTT), A2780. In kind it is cell-based. Particulars: read-out: A2780 IC50. As for the experimental part: The following assays (1–5) were carried out as described in our paper (Woods, et al, British Journal of Cancer, 71, 705–711 (1995)). In addition to the cell lines described in this paper, other established human cell lines (K562, HUVEC, H460, BE, H529, and HT29) were used in the cytotoxicity/growth inhibition assay. • (1) Inhibition of tubulin assembly. The figure quoted is the concentration required to reduce assembly of tubulin by 50%. Tubulin assembly is monitored by light scatter/absorption at 350 nm.
(2) Competition for the colchicine binding site on tubulin. The figure quoted represents the % of ^3H-colchicine bound following co-incubation of test compound and ^3H-cochicine with isolated tubulin. Where ester pro-drugs were used the experiments were carried out in the presence and absence of porcine liver esterase. • (3) Cytotoxicity/growth inhibition assay. This was carried out by the MTT assay. • (4) Permeability (shape-change) assay in endothelial cells. This was carried out using a method based on that of Watts et al. (Anticancer Res., 17, 71–75, (1997)). This involved the diffusion of a fluorescently labelled dextran through a barrier of endothelial cells (HUVEC) grown to confluence on a porous membrane. The effect of agents to alter the shape of these cells results in an increase in the permeability of the cells to the dye. The figure represents the increase in permeability over control cultures when drug is added (30 minutes, 1 mM.). • (5) Experiments to study the anti-vascular effects of these agents were carried out as described previously by our group. (Zhao et al, European Journal of Nuclear Medicine, 26, 231–238 (1999)). The anti-vascular effects of the agents were monitored by either positron emission tomography (PET) or by histologogical examination following treatment of mice bearing T50:80 murine breast tumours, or H460 human lung tumours. • (6) Anti-tumour efficacy of agents was determined in xenografts of H460 human lung cancer. Animals (n=5) were trated either with 5 daily injections and tumour size measured with time following treatment. • (7) The pharmacokinetic profile of agents was determined in mice following injection with drug. Blood was taken at various times following treatment and analysed by HPLC with UV detection. The HPLC conditions were isocratic using a 5 micron C18 BDS column (150×4.6) ad eluting with 75% MeOH in water with a detection wavelength of 290 nm. […] (AND(P)H:quinone oxidoreductace, EC 1.6.99.2). DT-diaphorase is an enzyme over-expressed in a number of human tumours. […] This two-electron reducing enzyme can be used to selectively activate prodrugs within cancers which over-express the enzyme.

The values that follow come from patent US7220784B2, “Substituted stilbenes and their reactions” (priority 2000, dated 2007).

Read-outs that look alike come from different tables or passages of the source.

What is called IC50 is the point on the concentration scale where inhibition reaches its midpoint. Turning to `Cc1ccc(C=Cc2ccc(C)c(C)c2)cc1` [Compound 137], the concentration for half-maximal inhibition (IC50) in assay [1] (Mus musculus, P388, MTT) was 2 µM; in assay [2] (Homo sapiens, K562) it was 3.4 µM; in assay [3], greater than 10 µM; in assay [4], greater than 25 µM.

Regarding `COc1ccc(C=Cc2ccc(C)c(C)c2)cc1Br` [Compound 143], the half-inhibitory concentration (IC50) in assay [1] (Mus musculus, P388, MTT) was 2.5 µM; in assay [2] (Homo sapiens, K562), 1.15 µM; in assay [3] it was greater than 10 µM; in assay [4], greater than 25 µM.

In the case of `COc1ccc(C=Cc2ccc(C)c(C)c2)cc1F` [Compound 147], the IC50 is 1.7 µM in assay [1] (Mus musculus, P388, MTT); 0.09 µM in assay [2] (Homo sapiens, K562); 6.57 µM in assay [3]; greater than 25 µM in assay [4]. For the same compound, the “% of cells with DNA content <2 n” value in assay [5] is on record as 28%. Besides, the “% of cells in G0–G1” value in assay [5] is listed as 10%. In assay [5], the “% of cells in G2-M” value was determined as 57%. Further, in assay [5], the “% of cells in S phase” value is reported as 33%.

Consider `COc1cc(/C=C\c2ccc(C)c(C)c2)cc(OC)c1OC` [Compound 103], for which the IC50 in assay [1] (Mus musculus, P388, MTT) was 0.1 µM; in assay [2] (Homo sapiens, K562), 0.04 µM; in assay [3], 2 µM; in assay [4] it was greater than 25 µM.

For the compound `Cc1ccc(C=Cc2ccc(C)c(F)c2)cc1C` [Compound 149], the IC50 in assay [1] (Mus musculus, P388, MTT) is 7.2 µM; in assay [2] (Homo sapiens, K562) it was 0.39 µM; in assay [3], greater than 10 µM; in assay [4] it was greater than 25 µM.

For the compound `Cc1ccc(/C=C/c2ccc(C)c([N+](=O)[O-])c2)cc1C` [Compound 152], the half-maximal inhibitory concentration (IC50) in assay [1] (MTT) was greater than 50 µM; in assay [2], greater than 50 µM; in assay [3] it was greater than 10 µM; in assay [4] it was greater than 25 µM.

Regarding `COc1ccc(/C=C/c2ccc(C)c(C)c2)cc1F` [Compound 148], the half-inhibitory concentration (IC50) in assay [1] (MTT) was 36 µM; in assay [2], 2.5 µM; in assay [3], greater than 10 µM; in assay [4], greater than 25 µM.

Take `COc1cc(/C=C\c2cccc(O)c2)cc(OC)c1OC` [Compound 101]: the IC50 in assay [1] (Mus musculus, P388, MTT) is 0.3 µM; in assay [2] (Homo sapiens, K562) it was 0.14 µM; in assay [3], greater than 10 µM; in assay [4], greater than 25 µM.

Turning to `COc1ccc(C=Cc2ccc(C)c(C)c2)cc1[N+](=O)[O-]` [Compound 139], the IC50 in assay [1] (Mus musculus, P388, MTT) was 20 µM; in assay [2] (Homo sapiens, K562), 1.8 µM; in assay [3], greater than 10 µM; in assay [4], greater than 25 µM.

Take `COc1ccc(/C(C)=C\c2cc(OC)c(OC)c(OC)c2)cc1O` [Compound 20, Z-1-(3′,4′,5′-trimethoxyphenyl)-2-(3″-hydroxy-4″-methoxyphenyl)propene]: the IC50 in assay [1] (Mus musculus, P388, MTT) turned out to be 7 µM; in assay [2] (Homo sapiens, K562), 1.8 µM.

Regarding `Cc1ccc(/C=C/c2ccc(C)c(F)c2)cc1C` [Compound 150], the 50% inhibitory concentration (IC50) in assay [1] (MTT) is 40 µM; in assay [2] it was greater than 50 µM; in assay [3] it was greater than 10 µM; in assay [4], greater than 25 µM.

Take `COc1ccc(C(C)=Cc2cc(OC)c(OC)c(OC)c2)cc1O` [Compound 200]: the IC50 is 7 µM in assay [1] (Mus musculus, P388, MTT); 2 µM in assay [2] (Homo sapiens, K562); 9 µM in assay [3]; greater than 25 µM in assay [4].

For the compound `Cc1ccc(C=Cc2ccc(C)c([N+](=O)[O-])c2)cc1C` [Compound 151], the 50% inhibitory concentration (IC50) in assay [1] (Mus musculus, P388, MTT) is 9.7 µM; in assay [2] (Homo sapiens, K562), 1.5 µM; in assay [3], greater than 10 µM; in assay [4] it was greater than 25 µM.

As to `COc1ccc(/C=C/c2ccc(C)c(C)c2)cc1` [Compound 142], the IC50 in assay [1] (MTT) is 20.5 µM; in assay [2] it was greater than 50 µM; in assay [3] it was greater than 10 µM; in assay [4] it was greater than 25 µM.

In the case of `COc1ccc(C=Cc2ccc(C)c(C)c2)cc1O` [Compound 146], the 50% inhibitory concentration (IC50) in assay [1] (Mus musculus, P388, MTT) was 0.4 µM; in assay [2] (Homo sapiens, K562), 0.07 µM; in assay [3], 3.09 µM; in assay [4] it was 12.5 µM. Also, the “% of cells with DNA content <2 n” value in assay [5] worked out at 31%. The “% of cells in G0–G1” value in assay [5] is listed as 8%. The “% of cells in G2-M” value in assay [5] came out at 65%. For the same compound, the “% of cells in S phase” value in assay [5] stood at 27%.

Consider `COc1ccc(/C=C/c2ccc(C)c(C)c2)cc1Br` [Compound 144], for which the 50% inhibitory concentration (IC50) in assay [1] (MTT) was greater than 50 µM; in assay [2], greater than 50 µM; in assay [3], greater than 10 µM; in assay [4], greater than 25 µM.

As for `COc1ccc(C=Cc2ccc(C)c(C)c2)cc1` [Compound 141], the IC50 in assay [1] (Mus musculus, P388, MTT) is 4.9 µM; in assay [2] (Homo sapiens, K562), 1.6 µM; in assay [3], greater than 10 µM; in assay [4], greater than 25 µM.

As for `COc1ccc(/C=C/c2ccc(C)c(C)c2)cc1[N+](=O)[O-]` [Compound 140], the half-inhibitory concentration (IC50) in assay [1] (MTT) is greater than 50 µM; in assay [2] it was 24 µM; in assay [3], greater than 10 µM; in assay [4], greater than 25 µM.

Take `COc1cc(C=Cc2ccc(C=O)cc2)cc(OC)c1OC` [Compound 96-188]: the concentration for half-maximal inhibition (IC50) was 0.081 µM in assay [6] and 0.32 µM in assay [1] (MTT).

As to `COc1cc(/C=C/c2ccc(C)c(C)c2)cc(OC)c1OC` [Compound 104], the half-inhibitory concentration (IC50) in assay [1] (MTT) was 20 µM; in assay [2], 35.8 µM; in assay [3], greater than 10 µM; in assay [4] it was greater than 25 µM.
